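A five-concentration, 48-hour dose response in 96-well plates underlies each endpoint, interpolated linearly between surrounding concentrations. At the GI50, growth is halved. TGI: total growth inhibition.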
Experiments:
Test in all cases: inhibition of tumour cell growth, NCI panel, 48 h
EKVX NSCLC = test system: EKVX NSCLC
NCI-H460 lung = test system: NCI-H460 lung
OVCAR-8 ovarian = test system: OVCAR-8 ovarian
NCI-H226 lung = test system: NCI-H226 lung
OVCAR-4 ovarian = test system: OVCAR-4 ovarian
HL-60(TB) leukemia = test system: HL-60(TB) leukemia
COLO 205 colon = test system: COLO 205 colon
SK-MEL-5 melanoma = test system: SK-MEL-5 melanoma
NCI-H522 lung = test system: NCI-H522 lung
T-47D breast = test system: T-47D breast
TK-10 renal = test system: TK-10 renal
OVCAR-3 ovarian = test system: OVCAR-3 ovarian
MOLT-4 leukemia = test system: MOLT-4 leukemia
MCF7 breast = test system: MCF7 breast
U251 CNS = test system: U251 CNS
SN12C renal = test system: SN12C renal
786-0 renal = test system: 786-0 renal
A498 renal = test system: A498 renal
K-562 leukemia = test system: K-562 leukemia
CCRF-CEM leukemia = test system: CCRF-CEM leukemia
CAKI-1 renal = test system: CAKI-1 renal
HT29 colon = test system: HT29 colon
SF-539 CNS = test system: SF-539 CNS
SNB-75 CNS = test system: SNB-75 CNS
M14 melanoma = test system: M14 melanoma
SK-MEL-2 melanoma = test system: SK-MEL-2 melanoma
MDA-MB-435 = test system: MDA-MB-435
SF-268 CNS = test system: SF-268 CNS
ACHN renal = test system: ACHN renal
LOX IMVI melanoma = test system: LOX IMVI melanoma
MALME-3M melanoma = test system: MALME-3M melanoma
PC-3 prostate = test system: PC-3 prostate
SR leukemia = test system: SR leukemia
HCT-15 colon = test system: HCT-15 colon
HOP-92 NSCLC = test system: HOP-92 NSCLC
IGROV1 ovarian = test system: IGROV1 ovarian
OVCAR-5 ovarian = test system: OVCAR-5 ovarian
HCC-2998 colon = test system: HCC-2998 colon
HOP-62 NSCLC = test system: HOP-62 NSCLC
HS 578T breast = test system: HS 578T breast
UACC-62 melanoma = test system: UACC-62 melanoma
A549 NSCLC = test system: A549 NSCLC
RPMI-8226 leukemia = test system: RPMI-8226 leukemia
SW-620 colon = test system: SW-620 colon
KM12 colon = test system: KM12 colon
UACC-257 melanoma = test system: UACC-257 melanoma
SF-295 CNS = test system: SF-295 CNS
SNB-19 CNS = test system: SNB-19 CNS
NCI/ADR-RES ovarian = test system: NCI/ADR-RES ovarian
MDA-MB-231 breast = test system: MDA-MB-231 breast
BT-549 breast = test system: BT-549 breast
RXF 393 renal = test system: RXF 393 renal
HCT-116 colon = test system: HCT-116 colon
SK-MEL-28 melanoma = test system: SK-MEL-28 melanoma
SK-OV-3 ovarian = test system: SK-OV-3 ovarian
UO-31 renal = test system: UO-31 renal
DU-145 prostate = test system: DU-145 prostate

C#C[C@]1(O)CC[C@H]2[C@@H]3CC=C4c5sc(-c6ccc(F)cn6)nc5CC[C@]4(C)[C@H]3CC[C@@]21C
GI50 (EKVX NSCLC): 2.89 µM
TGI (EKVX NSCLC): 12.9 µM
GI50 (NCI-H460 lung): 3.03 µM
TGI (NCI-H460 lung): 12.5 µM
GI50 (OVCAR-8 ovarian): 3.16 µM
TGI (OVCAR-8 ovarian): 14.3 µM
GI50 (NCI-H226 lung): 2.93 µM
TGI (NCI-H226 lung): 13.1 µM
GI50 (OVCAR-4 ovarian): 4.41 µM
TGI (OVCAR-4 ovarian): 18.5 µM
GI50 (HL-60(TB) leukemia): 2.77 µM
TGI (HL-60(TB) leukemia): 10.9 µM
GI50 (COLO 205 colon): 2.62 µM
TGI (COLO 205 colon): 11.1 µM
GI50 (SK-MEL-5 melanoma): 2.62 µM
TGI (SK-MEL-5 melanoma): 7.23 µM
GI50 (NCI-H522 lung): 2.06 µM
TGI (NCI-H522 lung): 5.78 µM
GI50 (T-47D breast): 3.43 µM
TGI (T-47D breast): 16.1 µM
GI50 (TK-10 renal): 5.31 µM
TGI (TK-10 renal): 17.3 µM
GI50 (OVCAR-3 ovarian): 3.86 µM
TGI (OVCAR-3 ovarian): 72.4 µM
GI50 (MOLT-4 leukemia): 2.01 µM
TGI (MOLT-4 leukemia): 8.06 µM
GI50 (MCF7 breast): 1.5 µM
TGI (MCF7 breast): 3.38 µM
GI50 (U251 CNS): 1.68 µM
TGI (U251 CNS): 7.05 µM
GI50 (SN12C renal): 4.54 µM
TGI (SN12C renal): 17.5 µM
GI50 (786-0 renal): 1.36 µM
TGI (786-0 renal): 3.33 µM
GI50 (A498 renal): 2.05 µM
TGI (A498 renal): 4.06 µM
GI50 (K-562 leukemia): 2.49 µM
TGI (K-562 leukemia): > 100 µM
GI50 (CCRF-CEM leukemia): 2.71 µM
TGI (CCRF-CEM leukemia): 33.5 µM
GI50 (CAKI-1 renal): 2.12 µM
TGI (CAKI-1 renal): 6.27 µM
GI50 (HT29 colon): 2.02 µM
TGI (HT29 colon): 4.6 µM
GI50 (SF-539 CNS): 1.23 µM
TGI (SF-539 CNS): 2.88 µM
GI50 (SNB-75 CNS): 2.45 µM
TGI (SNB-75 CNS): 15 µM
GI50 (M14 melanoma): 2.77 µM
TGI (M14 melanoma): 11.7 µM
GI50 (SK-MEL-2 melanoma): 2.33 µM
TGI (SK-MEL-2 melanoma): 6.58 µM
GI50 (MDA-MB-435): 2.28 µM
TGI (MDA-MB-435): 6.84 µM
GI50 (SF-268 CNS): 3.46 µM
TGI (SF-268 CNS): 18.4 µM
GI50 (ACHN renal): 3.43 µM
TGI (ACHN renal): 14 µM
GI50 (LOX IMVI melanoma): 1.82 µM
TGI (LOX IMVI melanoma): 3.35 µM
GI50 (MALME-3M melanoma): 3.29 µM
TGI (MALME-3M melanoma): 11.7 µM
GI50 (PC-3 prostate): 1.73 µM
TGI (PC-3 prostate): 7.64 µM
GI50 (SR leukemia): 2.21 µM
TGI (SR leukemia): 8.39 µM
GI50 (HCT-15 colon): 1.89 µM
TGI (HCT-15 colon): 5.11 µM
GI50 (HOP-92 NSCLC): 2.02 µM
TGI (HOP-92 NSCLC): 6.83 µM
GI50 (IGROV1 ovarian): 4.96 µM
TGI (IGROV1 ovarian): 20.8 µM
GI50 (OVCAR-5 ovarian): 4.01 µM
TGI (OVCAR-5 ovarian): 14.8 µM
GI50 (HCC-2998 colon): 5.16 µM
TGI (HCC-2998 colon): 17.8 µM
GI50 (HOP-62 NSCLC): 2.28 µM
TGI (HOP-62 NSCLC): 7.25 µM
GI50 (HS 578T breast): 1.45 µM
TGI (HS 578T breast): 5.26 µM
GI50 (UACC-62 melanoma): 2.65 µM
TGI (UACC-62 melanoma): 8.53 µM
GI50 (A549 NSCLC): 3.44 µM
TGI (A549 NSCLC): 15.1 µM
GI50 (RPMI-8226 leukemia): 0.365 µM
TGI (RPMI-8226 leukemia): 1.72 µM
GI50 (SW-620 colon): 2.62 µM
TGI (SW-620 colon): 8.01 µM
GI50 (KM12 colon): 3.26 µM
TGI (KM12 colon): 20.8 µM
GI50 (UACC-257 melanoma): 2.25 µM
TGI (UACC-257 melanoma): 6.73 µM
GI50 (SF-295 CNS): 1.24 µM
TGI (SF-295 CNS): 2.96 µM
GI50 (SNB-19 CNS): 2.72 µM
TGI (SNB-19 CNS): 12.7 µM
GI50 (NCI/ADR-RES ovarian): 4.12 µM
TGI (NCI/ADR-RES ovarian): 23.6 µM
GI50 (MDA-MB-231 breast): 2.4 µM
TGI (MDA-MB-231 breast): 7.14 µM
GI50 (BT-549 breast): 1.77 µM
TGI (BT-549 breast): 5.02 µM
GI50 (RXF 393 renal): 0.309 µM
TGI (RXF 393 renal): 0.956 µM
GI50 (HCT-116 colon): 1.8 µM
TGI (HCT-116 colon): 4.3 µM
GI50 (SK-MEL-28 melanoma): 1.64 µM
TGI (SK-MEL-28 melanoma): 3.88 µM
GI50 (SK-OV-3 ovarian): 2.29 µM
TGI (SK-OV-3 ovarian): 5.64 µM
GI50 (UO-31 renal): 2.32 µM
TGI (UO-31 renal): 5.62 µM
GI50 (DU-145 prostate): 4.62 µM
TGI (DU-145 prostate): 18.9 µM

Reference: PubChem BioAssay (NCI)
